Test [1] concerns the target EGFR (d746-750) (Homo sapiens (Human), UniProt P00533, DEL746-750). The test can be described thus: Biochemical EGFR inhibition assay, EGFR (d746-750). The note with it: Caliper mobility shift; 1.0 mM ATP or ATP Km; read-out: Enz EGFR_Exon19-del746-750 IC50.
The target of test [2] is EGFR L858R (Homo sapiens (Human), UniProt P00533, L858R). The test can be described thus: Biochemical EGFR inhibition assay, EGFR L858R. Conditions: Caliper mobility shift; 1.0 mM ATP or ATP Km; read-out: Enz EGFR_L858R IC50.
Sequence of EGFR L858R (P00533 25-1210 L858R): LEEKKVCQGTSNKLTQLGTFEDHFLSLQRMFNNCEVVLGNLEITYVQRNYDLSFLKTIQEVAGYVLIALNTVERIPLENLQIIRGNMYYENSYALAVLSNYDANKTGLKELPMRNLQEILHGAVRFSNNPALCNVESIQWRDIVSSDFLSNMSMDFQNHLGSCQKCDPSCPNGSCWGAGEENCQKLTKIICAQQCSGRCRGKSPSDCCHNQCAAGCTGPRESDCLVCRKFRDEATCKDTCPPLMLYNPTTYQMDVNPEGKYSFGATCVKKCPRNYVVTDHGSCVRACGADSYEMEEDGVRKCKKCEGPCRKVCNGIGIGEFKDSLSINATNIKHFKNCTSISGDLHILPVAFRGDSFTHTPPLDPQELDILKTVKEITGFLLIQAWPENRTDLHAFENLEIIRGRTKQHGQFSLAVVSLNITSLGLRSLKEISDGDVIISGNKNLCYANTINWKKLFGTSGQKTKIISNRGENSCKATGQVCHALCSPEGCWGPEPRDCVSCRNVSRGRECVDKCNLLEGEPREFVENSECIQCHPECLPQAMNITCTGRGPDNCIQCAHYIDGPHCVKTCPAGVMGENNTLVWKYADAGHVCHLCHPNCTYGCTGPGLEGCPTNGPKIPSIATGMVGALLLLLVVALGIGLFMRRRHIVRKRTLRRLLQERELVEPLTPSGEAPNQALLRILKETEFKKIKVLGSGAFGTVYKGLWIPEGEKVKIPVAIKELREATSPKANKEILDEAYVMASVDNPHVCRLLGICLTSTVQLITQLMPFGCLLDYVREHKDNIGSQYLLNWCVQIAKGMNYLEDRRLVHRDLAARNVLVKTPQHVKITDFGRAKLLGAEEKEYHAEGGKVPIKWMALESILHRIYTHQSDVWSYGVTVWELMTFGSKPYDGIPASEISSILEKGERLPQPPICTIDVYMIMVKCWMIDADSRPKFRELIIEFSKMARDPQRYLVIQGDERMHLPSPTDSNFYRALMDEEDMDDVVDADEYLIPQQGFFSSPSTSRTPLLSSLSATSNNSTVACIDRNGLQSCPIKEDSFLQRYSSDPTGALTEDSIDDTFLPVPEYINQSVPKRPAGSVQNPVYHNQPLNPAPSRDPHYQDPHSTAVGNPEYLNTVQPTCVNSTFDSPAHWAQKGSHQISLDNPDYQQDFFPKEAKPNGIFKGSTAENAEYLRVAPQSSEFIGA
The target of test [3] is pEGFR (Tyr1068) in PC-9 cells (Ex19Del) (Homo sapiens (Human), UniProt P00533, DEL746-750). In words: PC-9 pEGFR AlphaLISA assay. Conditions: 4 hours incubation, p-EGFR (Tyr1068) AlphaLISA, read-out: Ext pEGFR_PC-9 Ex19Del IC50. Format: cell-based. Put shortly:
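Compounds are added in ten 4-fold dilutions to adherent cells grown in serum-containing (10% FBS) phenol-free DMEM and left for 4 hours at 37° C. Phosphorylated receptor in lysates is quantified by bead-based AlphaLISA. IC50 values derive from inhibition plotted against log dose.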

The structures appear in SMILES notation.

Sequence of EGFR (d746-750) (P00533 other isoform, or with tags, fused parts or gaps del 1-694/del 746-750 limits assumed): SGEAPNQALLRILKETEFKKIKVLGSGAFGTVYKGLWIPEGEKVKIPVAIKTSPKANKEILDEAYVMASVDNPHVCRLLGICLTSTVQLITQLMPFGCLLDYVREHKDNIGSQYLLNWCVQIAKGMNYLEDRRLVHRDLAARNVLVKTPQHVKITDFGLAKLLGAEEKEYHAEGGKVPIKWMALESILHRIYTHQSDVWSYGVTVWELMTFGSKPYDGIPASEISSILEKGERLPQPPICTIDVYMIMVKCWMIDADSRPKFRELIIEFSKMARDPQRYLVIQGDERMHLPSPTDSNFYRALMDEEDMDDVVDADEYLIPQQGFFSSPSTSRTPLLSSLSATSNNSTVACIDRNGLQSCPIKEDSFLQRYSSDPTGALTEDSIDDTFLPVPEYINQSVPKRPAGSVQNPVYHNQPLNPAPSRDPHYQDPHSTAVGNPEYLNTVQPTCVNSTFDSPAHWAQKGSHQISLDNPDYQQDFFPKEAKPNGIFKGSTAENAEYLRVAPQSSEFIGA
Sequence of pEGFR (Tyr1068) in PC-9 cells (Ex19Del) (P00533 other isoform, or with tags, fused parts or gaps del 746-750): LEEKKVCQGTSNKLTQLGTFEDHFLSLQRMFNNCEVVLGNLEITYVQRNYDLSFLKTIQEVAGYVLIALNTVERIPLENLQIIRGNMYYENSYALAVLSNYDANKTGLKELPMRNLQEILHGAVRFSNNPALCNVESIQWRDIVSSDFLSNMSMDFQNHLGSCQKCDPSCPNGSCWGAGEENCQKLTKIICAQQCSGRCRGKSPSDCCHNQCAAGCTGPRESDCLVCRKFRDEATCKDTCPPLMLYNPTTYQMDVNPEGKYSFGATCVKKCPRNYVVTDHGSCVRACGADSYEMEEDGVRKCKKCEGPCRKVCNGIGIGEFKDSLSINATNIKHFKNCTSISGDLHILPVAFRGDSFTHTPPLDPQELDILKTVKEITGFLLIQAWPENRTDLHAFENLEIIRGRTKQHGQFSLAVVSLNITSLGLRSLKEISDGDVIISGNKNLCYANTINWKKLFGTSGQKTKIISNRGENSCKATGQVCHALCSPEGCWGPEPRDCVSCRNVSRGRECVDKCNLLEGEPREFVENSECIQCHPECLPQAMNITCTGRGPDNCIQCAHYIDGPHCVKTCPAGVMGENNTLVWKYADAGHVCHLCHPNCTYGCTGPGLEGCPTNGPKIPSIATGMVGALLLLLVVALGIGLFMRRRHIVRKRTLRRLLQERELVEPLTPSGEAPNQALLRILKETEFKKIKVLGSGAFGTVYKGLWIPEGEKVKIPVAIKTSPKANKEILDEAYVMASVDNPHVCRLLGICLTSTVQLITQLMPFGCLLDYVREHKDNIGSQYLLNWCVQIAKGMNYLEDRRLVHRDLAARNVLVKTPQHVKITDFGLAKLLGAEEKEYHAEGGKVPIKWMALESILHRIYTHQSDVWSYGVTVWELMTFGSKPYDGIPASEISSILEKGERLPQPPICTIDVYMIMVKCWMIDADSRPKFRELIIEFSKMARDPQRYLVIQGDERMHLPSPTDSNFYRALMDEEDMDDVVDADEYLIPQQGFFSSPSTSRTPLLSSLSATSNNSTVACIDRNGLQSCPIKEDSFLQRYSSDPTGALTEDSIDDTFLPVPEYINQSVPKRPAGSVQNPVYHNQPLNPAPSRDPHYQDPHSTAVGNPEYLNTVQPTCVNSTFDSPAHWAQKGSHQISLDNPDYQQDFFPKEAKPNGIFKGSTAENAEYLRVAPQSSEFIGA

Consider `COc1cc2ncnc(-c3cn(C)nc3-c3ccc(F)cc3F)c2nc1NC(=O)[C@]12C[C@H]1CN(C)C2` (single isomer, unassigned) [Example 424, (1R,5R)—N-(4-(3-(2,4-difluorophenyl)-1-methyl-1H-pyrazol-4-yl)-7-methoxypyrido[3,2-d]pyrimidin-6-yl)-3-methyl-3-azabicyclo[3.1.0]hexane-1-carboxamide or (1S,5S)—N-(4-(3-(2,4-difluorophenyl)-1-methyl-1H-pyrazol-4-yl)-7-methoxypyrido[3,2-d]pyrimidin-6-yl)-3-methyl-3-azabicyclo[3.1.0]hexane-1-carboxamide], for which the 50% inhibitory concentration (IC50) in test [1] amounted to 1.2 nM; in test [2] it was 2.3 nM; in test [3], 1.5 nM.
Regarding `COc1cc2ncnc(-c3cn(C)nc3-c3ccccc3)c2cc1NC(=O)C[C@H]1CCCO1` [Example 280, (R)—N-(7-methoxy-4-(1-methyl-3-phenyl-1H-pyrazol-4-yl)quinazolin-6-yl)-2-(tetrahydrofuran-2-yl) acetamide], the 50% inhibitory concentration (IC50) in test [1] came to 1.7 nM; in test [2], 2.4 nM; in test [3] it was 2.5 nM.
As for `CCn1cc(-c2ncnc3cc(OC)c(NC(=O)[C@]45C[C@H]4CN(C)C5)nc23)c(-c2ccc(F)cc2)n1` (single isomer, unassigned) [Example 399, (1R,5R)—N-(4-(1-ethyl-3-(4-fluorophenyl)-1H-pyrazol-4-yl)-7-methoxypyrido[3,2-d]pyrimidin-6-yl)-3-methyl-3-azabicyclo[3.1.0]hexane-1-carboxamide or (1S,5S)—N-(4-(1-ethyl-3-(4-fluorophenyl)-1H-pyrazol-4-yl)-7-methoxypyrido[3,2-d]pyrimidin-6-yl)-3-methyl-3-azabicyclo[3.1.0]hexane-1-carboxamide], the figures for the IC50 in test [1], in test [2] and in test [3] were 0.9 nM, 1.2 nM and 1.3 nM, respectively.
Regarding `COc1cc2ncnc(-c3cn(C)nc3-c3ccccc3)c2cc1NC(=O)c1cn(C(F)(F)F)nc1C` [Example 235, N-(7-methoxy-4-(1-methyl-3-phenyl-1H-pyrazol-4-yl)quinazolin-6-yl)-3-methyl-1-(trifluoromethyl)-1H-pyrazole-4-carboxamide], the half-maximal inhibitory concentration (IC50) was found to be 0.9 nM in test [1], 1.6 nM in test [2] and 1.5 nM in test [3].
The matching figures for `COc1cc2ncnc(-c3cn(C)nc3-c3ccccc3)c2cc1NC(=O)c1cncnc1` [Example 193, N-(7-methoxy-4-(1-methyl-3-phenyl-1H-pyrazol-4-yl)quinazolin-6-yl)pyrimidine-5-carboxamide]: 0.7 nM, 1.5 nM and 2.9 nM.
Regarding `COc1cc2ncnc(-c3cn(C)nc3-c3ccccc3)c2cc1O[C@H]1CCN(C)C[C@@H]1F` [Example 2, 6-(((3S,4S)-3-fluoro-1-methylpiperidin-4-yl)oxy)-7-methoxy-4-(1-methyl-3-phenyl-1H-pyrazol-4-yl)quinazoline], the values for the IC50 in test [1], in test [2] and in test [3] were 1.9 nM, 4.3 nM and 4.9 nM, respectively.
In the case of `COc1cc2ncnc(-c3c[nH]nc3-c3ccc(F)cc3)c2nc1NC(=O)[C@]12COC[C@H]1C2` [Example 467, (1S,5S)—N-{4-[3-(4-fluorophenyl)-1H-pyrazol-4-yl]-7-methoxypyrido[3,2-d]pyrimidin-6-yl}-3-oxabicyclo[3.1.0]hexane-1-carboxamide], the 50% inhibitory concentration (IC50) in test [1] turned out to be 1.3 nM; in test [2], 5.5 nM; in test [3], 5.3 nM.
`COc1cc2ncnc(-c3cn(C)nc3-c3ccccc3)c2cc1O[C@@H]1CCOC[C@H]1F` [Example 18, 6-(((3R,4R)-3-fluorotetrahydro-2H-pyran-4-yl)oxy)-7-methoxy-4-(1-methyl-3-phenyl-1H-pyrazol-4-yl)quinazoline]: the IC50 in test [1] came out at 1.8 nM; in test [2] it was 3.1 nM; in test [3], 4.3 nM.

The record behind these values is US20250236608A1, “EGFR INHIBITORS” (Blueprint Medicines Corporation, priority 2022, published 2025).
